Laboratory results: patent publication US20040235939A1, “Synthesis of peloruside a and analogs thereof for use as antitumor agents” (priority 2003, published 2004)

What was measured:
LoVo = assay: SRB cytotoxicity assay, LoVo; format: cell-based; conditions: Homo sapiens
Procedure: (§1) Cells were treated on Days 1, 3, 5, and 7 with 5 μL of media, vehicle, or drug. Peloruside A was resuspended in 0.1% DMSO and added to wells to a final concentration of 0.01, 0.1, 1, 10 or 100 nM. Taxol® (Sigma-Aldrich) was resuspended in 0.1% ethanol and added to cells to a final concentration of 0.1, 1, 10, 100, or 1000 nM.
(§2) The amount of surviving cells was measured using the sulforhodamine B (SRB) assay as previously described (Skehan et al., New colorimetric cytotoxicity assay for anticancer-drug screening. J. Natl. Cancer Inst., 1990. 82(13): p. 1107-12). Cells were fixed on Days 5, 7, and 9 (representing 4, 6, and 8 days of exposure to drug or control, respectively) with 50% (w/v) trichloroacetic acid for 1 hour at 4° C., rinsed thoroughly with water, and dried overnight. The dried cells were stained with 4% sulforhodamine B in 1% acetic acid, rinsed thoroughly and dried overnight. The bound dye was resuspended in 10 mM Tris and the absorbance was read at 492 nm. Percent growth inhibition (GI) was calculated as follows: %GI=(1−(absorbance sample/absorbance vehicle))×100. The absorbance value for each drug concentration and control represents the average of 6 replicates. The %GI was plotted against the log[drug] to generate the growth curves. The concentration of drug required to inhibit growth by 50% (GI50) was calculated for each time point.

HCT-15 = assay: SRB cytotoxicity assay, HCT-15; format: cell-based; conditions: Homo sapiens
Procedure: as §1, §2

HCT-116 = assay: SRB cytotoxicity assay, HCT-116; format: cell-based; conditions: Homo sapiens
Procedure: as §1, §2

Capan-1 = assay: SRB cytotoxicity assay, Capan-1; format: cell-based; conditions: Homo sapiens
Procedure: as §1, §2

Mia PaCa-2 = assay: SRB cytotoxicity assay, Mia PaCa-2; format: cell-based; conditions: Homo sapiens
Procedure: as §1, §2

SK-MEL-5 = assay: SRB cytotoxicity assay, SK-MEL-5; format: cell-based; conditions: Homo sapiens
Procedure: as §1, §2

SK-MEL-28 = assay: SRB cytotoxicity assay, SK-MEL-28; format: cell-based; conditions: Homo sapiens
Procedure: as §1, §2

SK-OV-3 = assay: SRB cytotoxicity assay, SK-OV-3; format: cell-based; conditions: Homo sapiens
Procedure: as §1, §2

CAKI-1 = assay: SRB cytotoxicity assay, CAKI-1; format: cell-based; conditions: Homo sapiens
Procedure: as §1, §2

A498 = assay: SRB cytotoxicity assay, A498; format: cell-based; conditions: Homo sapiens
Procedure: as §1, §2

PC-3 = assay: SRB cytotoxicity assay, PC-3; format: cell-based; conditions: Homo sapiens
Procedure: as §1, §2

DU-145 = assay: SRB cytotoxicity assay, DU-145; format: cell-based; conditions: Homo sapiens
Procedure: as §1, §2

BT-549 = assay: SRB cytotoxicity assay, BT-549; format: cell-based; conditions: Homo sapiens
Procedure: as §1, §2

MDA-MB-231 = assay: SRB cytotoxicity assay, MDA-MB-231; format: cell-based; conditions: Homo sapiens
Procedure: as §1, §2

NCI-H460 = assay: SRB cytotoxicity assay, NCI-H460; format: cell-based; conditions: Homo sapiens
Procedure: as §1, §2

NCI-H23 = assay: SRB cytotoxicity assay, NCI-H23; format: cell-based; conditions: Homo sapiens
Procedure: as §1, §2

NCI-H2887 = assay: SRB cytotoxicity assay, NCI-H2887; format: cell-based, human
Procedure: as §1, §2

Hep-G2 = assay: SRB cytotoxicity assay, Hep-G2; format: cell-based; conditions: Homo sapiens
Procedure: as §1, §2

[1] = tested on: BSC-1 (Monkey Kidney epithelial) cells; assay: Immunofluorescent staining of tubulin in BSC-1 cells; format: cell-based; conditions: 200 nM of Taxol® or 50 nM of Peloruside A
ptx10 cells = assay: Cell Titer-Glo cell viability, Taxol-resistant ptx10 cells; conditions: Homo sapiens, PTX10, 48 h, read-out: cell viability
Procedure: (§3) These cell lines have specific amino acid mutations in tubulin that prevent Taxol®-binding. […] Synthetic (+)-Peloruside A was used for the present example.
(§4) 1A9, ptx10 and ptx22 cells were plated in 96-well plates to approximately 50% confluency. On the next day, Taxol® or Peloruside A was added to each well and incubated for 48 hours. A final concentration of 1, 2, 3, 4, 5, 8, 10, 20, 30, 50, 100, 300, 500, or 1000 nM of Taxol® was used. A final concentration of 10, 20, 30, 40, 50 or 70 nM of Peloruside A was used. Cell viability was measured using the Cell Titer-Glo Luminescent Cell Viability Assay (Promega). FIGS. 80-82 show bar graphs of cell viability at various concentrations of Peloruside A and Taxol®.

ptx22 cells = assay: Cell Titer-Glo cell viability, Taxol-resistant ptx22 cells; conditions: Homo sapiens, 48 h, read-out: cell viability
Procedure: as §3, §4

CC[C@H](/C=C(/C)C1C[C@@H](OC)CC(O)C(C)(C)C2(O)OC(C[C@@H](OC)C2O)C[C@@H](OC)[C@H](O)C(=O)O1)CO (single isomer, unassigned; (+)) [Peloruside A, (+)-Peloruside A]
GI50 (LoVo; 96 h): 11.8 nM
GI50 (LoVo; 144 h): 7.34 nM
GI50 (LoVo; 192 h): 6.14 nM
GI50 (HCT-15; HCT-15, 96 h): 14.3 nM
GI50 (HCT-15; HCT-15, 144 h): 9.23 nM
GI50 (HCT-15; HCT-15, 192 h): 11.7 nM
GI50 (HCT-116; HCT-116, 96 h): 3.64 nM
GI50 (HCT-116; HCT-116, 144 h): 5.81 nM
GI50 (HCT-116; HCT-116, 192 h): 1.79 nM
GI50 (Capan-1; CAPAN-1, 96 h): 29.8 nM
GI50 (Capan-1; CAPAN-1, 144 h): 6.8 nM
GI50 (Capan-1; CAPAN-1, 192 h): 5.21 nM
GI50 (Mia PaCa-2; MIA PaCa-2, 96 h): 9.65 nM
GI50 (Mia PaCa-2; MIA PaCa-2, 144 h): 1.76 nM
GI50 (Mia PaCa-2; MIA PaCa-2, 192 h): 2.44 nM
GI50 (SK-MEL-5; SK-MEL-5, 96 h): 9.42 nM
GI50 (SK-MEL-5; SK-MEL-5, 144 h): 1.76 nM
GI50 (SK-MEL-5; SK-MEL-5, 192 h): 2.44 nM
GI50 (SK-MEL-28; SK-MEL-28, 96 h): 23.3 nM
GI50 (SK-MEL-28; SK-MEL-28, 144 h): 7.29 nM
GI50 (SK-MEL-28; SK-MEL-28, 192 h): 2.07 nM
GI50 (SK-OV-3; SK-OV-3, 96 h): 8.81 nM
GI50 (SK-OV-3; SK-OV-3, 144 h): 8.51 nM
GI50 (SK-OV-3; SK-OV-3, 192 h): 5.77 nM
GI50 (CAKI-1; CAKI-1, 96 h): 12.5 nM
GI50 (CAKI-1; CAKI-1, 144 h): 3.97 nM
GI50 (CAKI-1; CAKI-1, 192 h): 3 nM
GI50 (A498; A498, 96 h): 7.3 nM
GI50 (A498; A498, 144 h): 1.9 nM
GI50 (A498; A498, 192 h): 2.75 nM
GI50 (PC-3; PC-3, 96 h): 11.6 nM
GI50 (PC-3; PC-3, 144 h): 6.5 nM
GI50 (PC-3; PC-3, 192 h): 2.46 nM
GI50 (DU-145; DU-145, 96 h): 9.2 nM
GI50 (DU-145; DU-145, 144 h): 3.25 nM
GI50 (DU-145; DU-145, 192 h): 2.94 nM
GI50 (BT-549; BT-549, 96 h): 38.8 nM
GI50 (BT-549; BT-549, 144 h): 4.28 nM
GI50 (BT-549; BT-549, 192 h): 5.73 nM
GI50 (MDA-MB-231; MDA-MB-231, 96 h): 4.02 nM
GI50 (MDA-MB-231; MDA-MB-231, 144 h): 3.4 nM
GI50 (MDA-MB-231; MDA-MB-231, 192 h): 1.53 nM
GI50 (NCI-H460; NCI-H460, 96 h): 8.27 nM
GI50 (NCI-H460; NCI-H460, 144 h): 5.38 nM
GI50 (NCI-H460; NCI-H460, 192 h): 4.77 nM
GI50 (NCI-H23; NCI-H23, 144 h): 7.11 nM
GI50 (NCI-H23; NCI-H23, 192 h): 4.78 nM
GI50 (NCI-H2887; Homo sapiens, NCI-H2887, 144 h): 674 nM
GI50 (NCI-H2887; Homo sapiens, NCI-H2887, 192 h): 9.15 nM
GI50 (NCI-H2887; NCl-H2887, Lung, 4 Days): 4 Days: Resistant
GI50 (Hep-G2; HepG2, 96 h): 18 nM
GI50 (Hep-G2; HepG2, 144 h): 1.58 nM
GI50 (Hep-G2; HepG2, 192 h): 0.98 nM
formation of a bipolar spindle [1]: inhibits the formation of a bipolar spindle
viability at 0.03 µM (ptx10 cells): ~50%
viability at 0.03 µM (ptx22 cells): ~50%
